Measurements reported in patent US20240158446A1, “CYCLIC COMPOUND HAVING SELECTIVE INHIBITORY ACTION ON KRAS OVER HRAS AND NRAS” (CHUGAI SEIYAKU KABUSHIKI KAISHA, priority 2021, published 2024).
Like-named read-outs stand apart in the source and are kept apart here. Where a SMILES comes first, the peptide text is derived from it. Bridges are numbered along the chain shown (N, C = ends). [ ]: non-standard residue; d: D form. The star is where a group is joined. hPhe(3-Cl-4-CF3) = N[C@@H](CCc1ccc(C(F)(F)F)c(Cl)c1)C(=O)O; NPrPhe(4-CF3) = CCCN[C@@H](Cc1ccc(C(F)(F)F)cc1)C(=O)O; NMeGly(cPent) = CN[C@H](C(=O)O)C1CCCC1; Hyp = O=C(O)[C@@H]1C[C@@H](O)CN1; NMeD = CN[C@@H](CC(=O)O)C(=O)O; NMeL = CN[C@@H](CC(C)C)C(=O)O; Ac6c = NC1(C(=O)O)CCCCC1; Morpholide = C1CN(*)CCO1; Ac5c = NC1(C(=O)O)CCCC1; Ac4c = NC1(C(=O)O)CCC1; NEtG = CCNCC(=O)O; Sar = CNCC(=O)O

Key:
[1] = biological target: GDP-bound KRAS wild-type protein (Homo sapiens, UniProt P01116); assay: Binding to KRAS by surface plasmon resonance (SPR), Single Cycle Kinetics; conditions: GDP-bound KRAS wild-type protein, read-out: KRAS KD
GDP-bound KRAS wild-type protein, sequence (P01116 whole entry): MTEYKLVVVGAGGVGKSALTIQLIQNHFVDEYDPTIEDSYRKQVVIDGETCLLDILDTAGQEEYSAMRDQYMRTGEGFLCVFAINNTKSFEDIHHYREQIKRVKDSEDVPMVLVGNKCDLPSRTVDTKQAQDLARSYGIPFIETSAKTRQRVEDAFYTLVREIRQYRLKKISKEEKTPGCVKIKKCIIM

[2] = biological target: GDP-bound NRAS wild-type protein (Homo sapiens, UniProt P01111); assay: Binding to NRAS by surface plasmon resonance (SPR), Single Cycle Kinetics; conditions: for NRAS/KRAS (ratio of KD value with respect to GDP-bound NRAS wild-type protein to KD value with respect to KRAS): SPR KD ratio NRAS/KRAS, class symbols; for NRAS/KRAS (ratio of KD value for NRAS to KD value for KRAS) / NRAS/KRAS (ratio of KD value with respect to NRAS to KD value with respect to KRAS): SPR, GDP-bound NRAS wild-type protein vs GDP-bound KRAS wild-type protein
GDP-bound NRAS wild-type protein, sequence (P01111 whole entry): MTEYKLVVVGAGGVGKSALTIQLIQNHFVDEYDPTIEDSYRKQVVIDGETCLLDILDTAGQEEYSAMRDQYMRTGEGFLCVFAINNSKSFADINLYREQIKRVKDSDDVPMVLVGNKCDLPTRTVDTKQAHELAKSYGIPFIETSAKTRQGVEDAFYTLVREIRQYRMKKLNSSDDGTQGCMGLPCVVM

[3] = biological target: GDP-bound HRAS wild-type protein (Homo sapiens, UniProt P01112); assay: Binding to HRAS by surface plasmon resonance (SPR), Single Cycle Kinetics; conditions: for HRAS/KRAS (ratio of KD value with respect to GDP-bound HRAS wild-type protein to KD value with respect to KRAS): SPR KD ratio HRAS/KRAS, class symbols; for HRAS/KRAS (ratio of KD value for HRAS to KD value for KRAS) / HRAS/KRAS (ratio of KD value with respect to HRAS to KD value with respect to KRAS): SPR, GDP-bound HRAS wild-type protein vs GDP-bound KRAS wild-type protein
GDP-bound HRAS wild-type protein, sequence (P01112 whole entry): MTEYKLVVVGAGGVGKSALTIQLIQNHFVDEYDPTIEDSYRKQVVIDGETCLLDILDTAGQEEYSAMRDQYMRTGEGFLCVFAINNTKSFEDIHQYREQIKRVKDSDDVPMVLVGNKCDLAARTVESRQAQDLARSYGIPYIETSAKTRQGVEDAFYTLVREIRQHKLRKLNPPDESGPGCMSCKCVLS

[4] = SPR Single Cycle Kinetics, 1:1 binding model

Kd [1, 4]	Kd ([1]; SPR, Single Cycle Kinetics)	Structure (SMILES)	NRAS/KRAS (ratio of KD value with respect to GDP-bound NRAS wild-type protein to KD value with respect to KRAS) [2]	HRAS/KRAS (ratio of KD value with respect to GDP-bound HRAS wild-type protein to KD value with respect to KRAS) [3]	NRAS/KRAS (ratio of KD value for NRAS to KD value for KRAS) [2]	HRAS/KRAS (ratio of KD value for HRAS to KD value for KRAS) [3]	NRAS/KRAS (ratio of KD value with respect to NRAS to KD value with respect to KRAS) [2]	HRAS/KRAS (ratio of KD value with respect to HRAS to KD value with respect to KRAS) [3]
0.55 nM	–	CCCN1C(=O)CN(C)C(=O)CN(C)C(=O)[C@H]([C@@H](C)CC)NC(=O)[C@H](CC(C)C)N(C)C(=O)C[C@@H](C(=O)N2CCOCC2)N(C)C(=O)[C@H](C2CCCC2)N(C)C(=O)C2(CCCCC2)NC(=O)[C@@H]2CCCN2C(=O)[C@H](CCc2ccc(C(F)(F)F)c(Cl)c2)NC(=O)CN(C)C(=O)[C@@H]1Cc1ccc(C(F)(F)F)cc1 [PP0231] ([NMeL]I[Sar][Sar][NPrPhe(4-CF3)][Sar][hPhe(3-Cl-4-CF3)]P[Ac6c][NMeGly(cPent)][NMeD]-Morpholide; lactam N-11)	–	–	B (a compound having 3 or more and less than 10 is denoted as B)	C (A compound having a KD ratio of 0.1 or more and less than 3 is denoted as C)	–	–
–	0.29 nM	CCO[C@@H]1C[C@H]2C(=O)NC3(CC(C)(C)C3)C(=O)N(C)[C@@H](C(CC)CC)C(=O)N(C)[C@H](C(=O)N(C)C)CC(=O)N(C)[C@@H](CC3CC3)C(=O)N[C@@H]([C@@H](C)CC)C(=O)N(C)CC(=O)N(C)[C@H]3C/C=C\CCN(C3=O)[C@@H](Cc3ccc(C)cc3)C(=O)N(C)CC(=O)N[C@@H](CCc3ccc(C(F)(F)F)c(OC)c3)C(=O)N2C1 [PP2166]	–	–	A (a compound having 10 or more and less than 20 is denoted as A)	A (a compound having 10 or more and less than 20 is denoted as A)	–	–
–	0.042 nM	CCO[C@@H]1C[C@H]2C(=O)NC3(CC(C)(C)C3)C(=O)N(C)[C@@H](C3CCCC3)C(=O)N(C)[C@H](C(=O)N(C)C)CC(=O)N(C)[C@H]3CCCCCCc4ccc(cc4)C[C@@H](C(=O)N(C)CC(=O)N[C@@H](CCc4ccc(C(F)(F)F)c(OC)c4)C(=O)N2C1)N1CC/C=C\C[C@@H](C1=O)N(C)C(=O)CN(C)C(=O)[C@H]([C@@H](C)CC)NC3=O [PP3066]	–	–	A (a compound having 10 or more and less than 20 is denoted as A)	B (a compound having 3 or more and less than 10 is denoted as B)	–	–
0.18 nM	–	CCCN1C(=O)CN(C)C(=O)CNC(=O)[C@H]([C@@H](C)CC)NC(=O)[C@H](CC(C)C)N(C)C(=O)C[C@@H](C(=O)N2CCOCC2)N(C)C(=O)[C@H](C2CCCC2)N(C)C(=O)C2(CCCC2)NC(=O)[C@@H]2CCCN2C(=O)[C@H](CCc2ccc(C(F)(F)F)c(Cl)c2)NC(=O)CN(C)C(=O)[C@@H]1Cc1ccc(C(F)(F)F)cc1 [PP0155] ([NMeL]IG[Sar][NPrPhe(4-CF3)][Sar][hPhe(3-Cl-4-CF3)]P[Ac5c][NMeGly(cPent)][NMeD]-Morpholide; lactam N-11)	–	–	B (a compound having 3 or more and less than 10 is denoted as B)	C (A compound having a KD ratio of 0.1 or more and less than 3 is denoted as C)	–	–
–	0.75 nM	CCO[C@@H]1C[C@H]2C(=O)NC3(CC(C)(C)C3)C(=O)N(C)[C@@H](C(CC)CC)C(=O)N(C)[C@H](C(=O)N3CCCC3)CC(=O)N(C)[C@@H](CC)C(=O)N[C@@H]([C@@H](C)CC)C(=O)N(C)CC(=O)N(C)[C@H]3C/C=C\CCN(C3=O)[C@@H](Cc3ccc(C)cc3)C(=O)N(C)CC(=O)N[C@@H](CCc3ccc(C(F)(F)F)c(OC)c3)C(=O)N2C1 [PP2171]	–	–	A (a compound having 10 or more and less than 20 is denoted as A)	A (a compound having 10 or more and less than 20 is denoted as A)	–	–
–	0.053 nM	CC[C@H](C)[C@@H]1NC(=O)[C@H](CC(C)C)N(C)C(=O)C[C@@H](C(=O)N2CCOCC2)N(C)C(=O)[C@H](C2CCCC2)N(C)C(=O)C2(CCC2)NC(=O)[C@@H]2C[C@@H](O)CN2C(=O)[C@H](CCc2cc(F)c(C(F)(F)F)c(F)c2)NC(=O)CN(C)C(=O)[C@H](Cc2ccc(C(F)(F)F)cc2)N2CCCC[C@@H](C2=O)N(C)C(=O)CN(C)C1=O [PP0868]	–	–	C (A compound having a KD ratio of 0.1 or more and less than 3 is denoted as C)	B (a compound having 3 or more and less than 10 is denoted as B)	–	–
0.15 nM	–	CCCN1C(=O)CN(C)C(=O)CN(CC)C(=O)[C@H]([C@@H](C)CC)NC(=O)[C@H](CC(C)C)N(C)C(=O)C[C@@H](C(=O)N2CCOCC2)N(C)C(=O)[C@H](C2CCCC2)N(C)C(=O)C2(CCC2)NC(=O)[C@@H]2C[C@@H](OCC)CN2C(=O)[C@H](CCc2ccc(C(F)(F)F)c(Cl)c2)NC(=O)CN(C)C(=O)[C@@H]1Cc1ccc(C(F)(F)F)cc1 [PP0401] ([NMeL]I[NEtG][Sar][NPrPhe(4-CF3)][Sar][hPhe(3-Cl-4-CF3)][Hyp](Et)[Ac4c][NMeGly(cPent)][NMeD]-Morpholide; lactam N-11)	–	–	B (a compound having 3 or more and less than 10 is denoted as B)	B (a compound having 3 or more and less than 10 is denoted as B)	–	–
0.46 nM	–	CCO[C@@H]1C[C@H]2C(=O)NC3(CCC3)C(=O)N(C)[C@@H](C3CCCC3)C(=O)N(C)[C@H](C(=O)N3CCOCC3)CC(=O)N(C)[C@@H](CCOC)C(=O)N[C@@H]([C@@H](C)CC)C(=O)N(C)CC(=O)N(C)[C@H]3CCCCCN(C3=O)[C@@H](Cc3ccc(C(F)(F)F)cc3)C(=O)N(C)CC(=O)N[C@@H](CCc3cc(F)c(C(F)(F)F)c(F)c3)C(=O)N2C1 [PP0690]	–	–	–	–	B (a compound having 3 or more and less than 10 is denoted as B)	B (a compound having 3 or more and less than 10 is denoted as B)
11 nM	–	CC[C@H](C)[C@@H]1NC(=O)[C@H](CC(C)C)N(C)C(=O)C[C@@H](C(=O)N(C)C)N(C)C(=O)[C@H](C2CCCC2)N(C)C(=O)C2(CCCC2)NC(=O)[C@@H]2CCCN2C(=O)[C@H](CCc2ccc(C(F)(F)F)c(Cl)c2)NC(=O)CN(C)C(=O)[C@H](Cc2ccc(C(F)(F)F)cc2)N2CC/C=C\COC[C@@H](C2=O)N(C)C(=O)CN(C)C1=O [PP0622]	–	–	–	–	B (a compound having 3 or more and less than 10 is denoted as B)	B (a compound having 3 or more and less than 10 is denoted as B)
–	5.7 nM	CCO[C@@H]1C[C@H]2C(=O)NC3(CCC3)C(=O)N(C)[C@@H](CC(F)F)C(=O)N(C)[C@H](C(=O)N3CCOCC3)CC(=O)N(C)[C@@H](CC(C)C)C(=O)N[C@@H]([C@@H](C)CC)C(=O)N(C)CC(=O)N(C)[C@H]3CCCCCN(C3=O)[C@@H](Cc3ccc(C(F)(F)F)cc3)C(=O)N(C)CC(=O)N[C@@H](CCc3cc(F)c(C(F)(F)F)c(F)c3)C(=O)N2C1 [PP0822]	–	–	B (a compound having 3 or more and less than 10 is denoted as B)	B (a compound having 3 or more and less than 10 is denoted as B)	–	–
28 nM	–	CC[C@H](C)[C@@H]1NC(=O)[C@H](CC(C)C)N(C)C(=O)C[C@@H](C(=O)N2CCOCC2)N(C)C(=O)[C@H](C2CCCC2)N(C)C(=O)C2(CCCC2)NC(=O)[C@@H]2CCCN2C(=O)[C@H](CCc2cc(F)c(C(F)(F)F)c(F)c2)NC(=O)CN(C)C(=O)[C@H](Cc2ccc(C(F)(F)F)cc2)N2CCCCC[C@@H](C2=O)N(C)C(=O)[C@@H]2CCCN2C1=O [PP0485]	–	–	–	–	A (a compound having 10 or more and less than 20 is denoted as A)	B (a compound having 3 or more and less than 10 is denoted as B)
–	1.4 nM	CCO[C@@H]1C[C@H]2C(=O)NC3(CC(C)(C)C3)C(=O)N(C)[C@@H](C(CC)CC)C(=O)N(C)[C@H](C(=O)N(C)C)CC(=O)N(C)[C@@H](C(C)C)C(=O)N[C@@H]([C@@H](C)CC)C(=O)N(C)CC(=O)N(C)[C@H]3C/C=C\CCN(C3=O)[C@@H](Cc3ccc(C)cc3)C(=O)N(C)CC(=O)N[C@@H](CCc3ccc(Cl)c(Cl)c3)C(=O)N2C1 [PP2122]	–	–	AA (a compound having 20 or more is denoted as AA)	A (a compound having 10 or more and less than 20 is denoted as A)	–	–
4.8 nM	–	CCC[C@H]1C(=O)N[C@@H]([C@@H](C)CC)C(=O)N(C)CC(=O)N(C)[C@H]2C/C=C\CCN(C2=O)[C@@H](Cc2ccc(C)cc2)C(=O)N(C)CC(=O)N[C@@H](CCc2cc(Cl)c3c(ccn3C)c2)C(=O)N2C[C@H](OCC)C[C@H]2C(=O)NC2(CC(C)(C)C2)C(=O)N(C)[C@@H](C(CC)CC)C(=O)N(C)[C@H](C(=O)N(C)C)CC(=O)N1C [PP2898]	A (a compound having 10 or more and less than 20 is denoted as A)	A (a compound having 10 or more and less than 20 is denoted as A)	–	–	–	–

Structure (SMILES)	Kd [1, 4]	Kd ([1]; SPR, Single Cycle Kinetics)	NRAS/KRAS (ratio of KD value with respect to GDP-bound NRAS wild-type protein to KD value with respect to KRAS) [2]	HRAS/KRAS (ratio of KD value with respect to GDP-bound HRAS wild-type protein to KD value with respect to KRAS) [3]	NRAS/KRAS (ratio of KD value for NRAS to KD value for KRAS) [2]	HRAS/KRAS (ratio of KD value for HRAS to KD value for KRAS) [3]	NRAS/KRAS (ratio of KD value with respect to NRAS to KD value with respect to KRAS) [2]	HRAS/KRAS (ratio of KD value with respect to HRAS to KD value with respect to KRAS) [3]
CCO[C@@H]1C[C@H]2C(=O)NC3(CC(C)(C)C3)C(=O)N(C)[C@@H](C3CCCC3)C(=O)N(C)[C@H](C(=O)N3CCCCC3)CC(=O)N(C)[C@H]3CCC/C=C/c4ccc(cc4)C[C@@H](C(=O)N(C)CC(=O)N[C@@H](CCc4cc(F)c(C(F)(F)F)c(F)c4)C(=O)N2C1)N1CC/C=C\C[C@@H](C1=O)N(C)C(=O)CN(C)C(=O)[C@H]([C@@H](C)CC)NC3=O [PP2573]	0.1 nM	–	A (a compound having 10 or more and less than 20 is denoted as A)	A (a compound having 10 or more and less than 20 is denoted as A)	–	–	–	–
